Two compounds from US4719224A, “Anti-inflammatory and analgesig thiophene acetic acid derivatives, compositions, and method of use therefor” (Roussel Uclaf, priority 1985, dated 1988) can be followed below.

Experiment [1] relates to adjuvant arthritis (rear paw volume increase). As to the kind of experiment: Anti-inflammatory activity, adjuvant arthritis (preventive treatment). Type of experiment: in vivo. Particulars: Rattus norvegicus; male rats, oral, day 0 to day 17, Freund type adjuvant; read-out: DA50 (dose that diminished by 50% the volume increase of the rear paws). The protocol: A. Anti-inflammatory Activity-adjuvant arthritis (preventive treatment)
The injection of Freund type adjuvant into the rear paw of a rat provokes the rapid appearance of a primary inflammatory lesion in that paw and then after a latent period of 13 to 15 days, the appearance of a secondary arthritic condition occurs in the other rear paw The test was performed on male rats about 40 to 50 days old who received an intraplantary injection of 0.1 ml of Freund type adjuvant (suspension of 6 mg per ml of dead mycobacterium butyrium in vaseline oil). The rats received the test compound orally on day 0 (day of injection of adjuvant) until the day before they were killed (day 17). […] The activity of the test compounds was determined by the increase in the injected rear paw volume (primary and secondary inflammation) and the non-injected rear paw (secondary inflammation) as compared to the average volume of the corresponding paws of the arthritic control animals. The DA50 or the dose that diminished by 50% the volume increase of the rear paws of the treated animals as compared to the control animals was determined to be 8 mg/kg for the compound of Example 1.

Another experiment has as its target T1, cyclo-oxygenase (Bos taurus, UniProt O62664).
T1 construct: a cyclo-oxygenase contained in a microsomal preparation of seminal vesicules of bulls; from tissue; host or cells: bull seminal vesicles, microsomal preparation
T1 sequence (O62664 25-600): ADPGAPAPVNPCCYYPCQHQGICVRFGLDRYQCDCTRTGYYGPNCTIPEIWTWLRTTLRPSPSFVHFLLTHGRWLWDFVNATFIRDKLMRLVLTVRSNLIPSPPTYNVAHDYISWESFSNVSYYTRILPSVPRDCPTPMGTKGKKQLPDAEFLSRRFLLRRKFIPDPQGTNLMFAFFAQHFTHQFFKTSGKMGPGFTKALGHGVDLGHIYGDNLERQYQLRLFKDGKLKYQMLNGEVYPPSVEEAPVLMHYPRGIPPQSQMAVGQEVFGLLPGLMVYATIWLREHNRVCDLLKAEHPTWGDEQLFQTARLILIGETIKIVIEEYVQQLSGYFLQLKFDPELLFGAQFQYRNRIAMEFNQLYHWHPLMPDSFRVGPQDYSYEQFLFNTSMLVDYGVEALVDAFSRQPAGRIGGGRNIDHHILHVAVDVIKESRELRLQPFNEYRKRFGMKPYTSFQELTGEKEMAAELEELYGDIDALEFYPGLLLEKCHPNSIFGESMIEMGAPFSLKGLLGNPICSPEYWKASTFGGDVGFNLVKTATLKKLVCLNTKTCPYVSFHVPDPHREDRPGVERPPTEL
The experiment in a line: Inhibition of biosynthesis of prostaglandins in vitro (microsomal preparation of seminal vesicules). It counts as biochemical, bulls. The method, then: B. Inhibition of biosynthesis of prostaglandins in vitro
Arachidonic acid is converted into prostaglandins (PGs) of the […] by a cyclo-oxygenase contained in a microsomal preparation of seminal vesicules of bulls by the method of Tagekuchi et al [Biochemistry, Vol. 10 (1971), P. 2372]. The precursor at a concentration of 15×10^-6 M was incubated in the presence of a fixed concentration of proteins of the seminal vesicule preparation and the test product at 37° C. for 30 minutes. The reaction was stopped by immersion into boiling water for one minute and then centrifugation. The prostaglandins were determined by radio-immunoassay by the procedure of Dray et al [European J. Clin. Invest., Vol. 5 (1975), p. 311] to specifically evaluate for PGE2 and PGF2 α. The CI50 dose or dose that inhibited the activity by 50% was calculated for each of the two prostaglandins and was 2×10^-5 M for the compound of Example 1.

The target in the next experiment is T2, 5-lipoxygenase (Rattus norvegicus, UniProt P12527).
T2 construct: Dosage of 5-lipoxygenase of rat neutrophiles; endogenous in cells; host or cells: rat peritoneal neutrophils elicited with sodium caseinate
T2 sequence (P12527 1-673): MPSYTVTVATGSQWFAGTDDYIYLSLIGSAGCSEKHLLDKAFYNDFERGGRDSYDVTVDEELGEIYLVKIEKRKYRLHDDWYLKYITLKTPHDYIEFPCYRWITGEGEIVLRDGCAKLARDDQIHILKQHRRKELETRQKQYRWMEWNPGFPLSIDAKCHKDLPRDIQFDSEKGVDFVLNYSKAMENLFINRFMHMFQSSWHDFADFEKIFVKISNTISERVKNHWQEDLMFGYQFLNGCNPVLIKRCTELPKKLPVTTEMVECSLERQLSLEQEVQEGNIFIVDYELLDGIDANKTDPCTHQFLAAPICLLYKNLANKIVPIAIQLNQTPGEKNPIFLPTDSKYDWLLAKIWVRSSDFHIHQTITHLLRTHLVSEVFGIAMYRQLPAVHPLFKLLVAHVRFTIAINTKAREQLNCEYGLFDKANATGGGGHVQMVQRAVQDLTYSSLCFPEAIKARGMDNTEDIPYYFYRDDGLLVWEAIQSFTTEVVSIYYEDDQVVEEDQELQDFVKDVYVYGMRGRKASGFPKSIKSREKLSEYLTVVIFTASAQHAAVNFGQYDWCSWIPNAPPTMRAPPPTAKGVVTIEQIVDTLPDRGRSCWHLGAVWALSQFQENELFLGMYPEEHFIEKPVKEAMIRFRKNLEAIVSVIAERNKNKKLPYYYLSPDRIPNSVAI
As to the kind of experiment: Dosage of 5-lipoxygenase of rat neutrophiles (Leucotriene B4 by radioimmunoassay). Type of experiment: cell-based. The following applies: rat peritoneal neutrophiles, 10 μM ionophore A 23187, Leucotriene B4; read-out: CI50 5-lipoxygenase. The protocol: 3. Dosage of 5-lipoxygenase of rat neutrophiles
Peritoneal neutrophile (5×10^6 cells/ml) obtained after intraperitoneal injection of 12% sodium caseinate were preincubated at 37° C. for 5 minutes in the presence of the test product or solvent used. The incubation was effected under the same conditions in the presence of 10 μM of ionophore A 23187 and […] of calcium chloride. After 5 minutes, the incubates were placed in ice and centrifuged at 3000 g.

SMILES strings stand for the structures. Like-named read-outs stand apart in the source and are kept apart here.

On to `CC(C(=O)O)c1cc2c(s1)C1(CCCCC1)CC2` (stereo not drawn) [Example 1, 4',5'-dihydro-α'-methyl-spiro[cyclohexane-1,6']-6H-[cyclopenta (b)thiophene]-2'-acetic acid], for which, in experiment [1], the ED50 is 8 mg/kg. Besides, the IC50 at cyclo-oxygenase (arachidonic acid 15×10^-6 M, 37° C., 30 minutes, PGE2 and PGF2 α by radio-immunoassay, read-out: CI50 (dose that inhibited the activity by 50%), for each of PGE2 and PGF2 α) is 20 µM; at 5-lipoxygenase it was 10 µM.

Consider `CC(C(=O)N(C)O)c1cc2c(s1)C1(CCCCC1)CC2` (stereo not drawn) [Example 4, 4',5'-dihydro-α',N-dimethyl-N-hydroxy-spiro[cyclohexane-1,6']-6H-[cyclopenta (b)thiophene]-2-acetamide], for which the IC50 came to 200 µM at cyclo-oxygenase (table value, read-out: CI50 cyclooxygenase) and 0.5 µM at 5-lipoxygenase.
